In the oligonucleotide strings, read from the 5' end, every base follows the letter of its sugar. An asterisk marks phosphorothioate; unmarked linkages are phosphodiester. Other units and linkages are bracketed, terminal groups are in braces. A string of capitals states the bases alone. e = 2'-O-(2-methoxyethyl) (MOE); [5mC] = 5-methylcytosine; d = 2'-deoxy (DNA)
Key:
Factor XI protein = test: Cynomolgus monkeys: plasma Factor XI protein ELISA (Example 30); assay type: in vivo; settings: for Inhibition of Factor XI protein relative to the PBS control: 25 mg/kg s.c., plasma ELISA
Summary of the method: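 Monkeys (2 male, 2 female per group) dosed s.c. with antisense oligonucleotide 25 mg/kg three times in week 1, then twice weekly to week 8; PBS control on same schedule. Plasma (1:50) assayed by sandwich ELISA with polyclonal anti-Factor XI capture and peroxidase-conjugated detection, o-phenylenediamine read at 490 nm; expressed as percent reduction versus PBS.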

Factor XI mRNA = test: Cynomolgus monkeys, 25 mg/kg: liver Factor XI RNA analysis (Example 30); assay type: in vivo; settings: for % inhibition of Factor XI mRNA in liver relative to the PBS control: 25 mg/kg s.c., day 55
Summary of the method: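 Cynomolgus monkeys (2 male, 2 female per group) received antisense oligonucleotide at 25 mg/kg subcutaneously, three times weekly in week 1, then twice weekly in weeks 2–8. Liver Factor XI mRNA was quantified by real-time PCR on day 55 and expressed as percent inhibition relative to a PBS-dosed group.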

[1] = Tolerability in CD1 mice: organ weight (Example 17); assay type: in vivo; settings: 50 mg/kg s.c. twice a week, 2 weeks, vs PBS control, normalized to body weight
Experimental: Three days after the last dose was administered to all groups, the mice were sacrificed.

[2] = tested on: IL-1β, IL-6, IFN-γ, TNF-α, IL-8, MIP-1α, MCP-1, MIP-10, RANTES; test: Cynomolgus monkeys: cytokine and chemokine assays (Example 30); assay type: in vivo
Summary of the method: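 Male and female monkeys (2 each per group) received 25 mg/kg antisense oligonucleotide subcutaneously three times weekly in week 1, then twice weekly to week 8; PBS controls dosed alike. Blood cytokines/chemokines measured 14 days pre-dose and on day 55, using primate antibodies (IL-1β, IL-6, IFN-γ, TNF-α) or cross-reacting human antibodies (others).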

bradykinin = test: Colitis Study E: bradykinin levels in colon; assay type: in vivo, Swiss Webb mice; settings: for Bradykinin levels in the colons: DSS-treated mice, day 7, 40 mpk
Experimental: (§1) Two groups 8 Swiss Webb mice were dosed with 40 mg/kg of ISIS 404071 injected subcutaneously twice a week for 3 weeks. Two control groups of 8 Swiss Webb mice were dosed with PBS subcutaneously twice a week for 3 weeks. Both the ASO treated groups and one of the control groups were then given 4% DSS in distilled water for 7 days ad libitum. One of the ASO and DSS treated groups was also given intravenous injections of 20 μg of recombinant human Factor XI protein (Haematologic Technologies Inc.) for 7 consecutive days, starting the day before DSS treatment. Mice were sacrificed at the end of the study on day 7 after DSS was administered.
The effect of antisense inhibition of Factor XI on kinin levels in the colon was evaluated (Phoenix Pharmaceuticals, Burlingame, Calif.) at the end of the study on day 7 after DSS was administered and the results are presented in Table 40.

[3] = tested on: DSS-induced colitis model; test: Colitis Study F: body weight, stool scores, colon length and weight; assay type: in vivo, Swiss Webb mice
Experimental: In a first group of 8 Swiss Webb mice, 50 mg/kg of ISIS 404071 was injected subcutaneously twice a week for 3 weeks. Two control groups of 8 mice each were injected with PBS twice a week for 3 weeks. After the oligonucleotide treatment, 4% DSS in water was administered ad libitum for 7 days to the experimental group and one PBS control group. Mice were sacrificed at the end of the study on day 7 after DSS was administered.
Mice in all groups were weighed at day 0 and daily for 7 days after administration of DSS. Mice were sacrificed at the end of the study on day 7 after DSS was administered and their colon lengths and weight were measured as shown in Table 45.

[4] = tested on: DSS-induced colitis model; test: Colitis Study E: weight change, colon length, stool analysis; assay type: in vivo, Swiss Webb mice; settings: for Colon length / Weight change / Diarrhea score: DSS-treated mice; for Colon length / Weight change: 40 mpk; for Diarrhea score: day 7, 40 mpk
Experimental: as §1
Mice in all groups were weighed at day 0 and at the end of the study. […] Mice were sacrificed at the end of the study on day 7 after DSS was administered and their colon lengths were measured.

[5] = day −14 (before start of treatment)
[6] = plus human recombinant FXI 20 ug/mouse/day
[7] = DSS-treated mice, 50 mg/kg, day 7

## 416850 (antisense TGCACAGTTTCTGGCAGGCC; 5-10-5 gapmer, wing sugar chemistry not given here, further chemistry not given here) [compound 416850]
Factor XI protein; Day 10
  Inhibition of Factor XI protein relative to the PBS control: 20%
Factor XI protein; Day 17
  Inhibition of Factor XI protein relative to the PBS control: 31%
Factor XI protein; Day 24
  Inhibition of Factor XI protein relative to the PBS control: 38%
Factor XI protein; Day 31
  Inhibition of Factor XI protein relative to the PBS control: 52%
Factor XI protein; Day 38
  Inhibition of Factor XI protein relative to the PBS control: 51%
Factor XI protein; Day 45
  Inhibition of Factor XI protein relative to the PBS control: 53%
Factor XI protein; Day 52
  Inhibition of Factor XI protein relative to the PBS control: 53%
Factor XI protein; Day 55
  Inhibition of Factor XI protein relative to the PBS control: 58%
Factor XI protein; Day −5
  Inhibition of Factor XI protein relative to the PBS control: 0%
Factor XI protein; Day −14
  Inhibition of Factor XI protein relative to the PBS control: 0%
Factor XI mRNA
  % inhibition of Factor XI mRNA in liver relative to the PBS control: 68%
[1]
  Percent change in kidney weight: −10%

## 416858 (antisense ACGGCATTGGTGCACAGTTT; 5-10-5 gapmer, wing sugar chemistry not given here, further chemistry not given here) [compound 416858]
Factor XI protein; Day 10
  Inhibition of Factor XI protein relative to the PBS control: 36%
Factor XI protein; Day 17
  Inhibition of Factor XI protein relative to the PBS control: 49%
Factor XI protein; Day 24
  Inhibition of Factor XI protein relative to the PBS control: 62%
Factor XI protein; Day 31
  Inhibition of Factor XI protein relative to the PBS control: 68%
Factor XI protein; Day 38
  Inhibition of Factor XI protein relative to the PBS control: 74%
Factor XI protein; Day 45
  Inhibition of Factor XI protein relative to the PBS control: 79%
Factor XI protein; Day 52
  Inhibition of Factor XI protein relative to the PBS control: 81%
Factor XI protein; Day 55
  Inhibition of Factor XI protein relative to the PBS control: 81%
Factor XI protein; Day −5
  Inhibition of Factor XI protein relative to the PBS control: 0%
Factor XI protein; Day −14
  Inhibition of Factor XI protein relative to the PBS control: 4%
Factor XI mRNA
  % inhibition of Factor XI mRNA in liver relative to the PBS control: 89%

## 445522 (antisense eG*e[5mC]*eA*e[5mC]*eA*dG*dT*dT*dT*d[5mC]*dT*dG*dG*e[5mC]*eA*eG*eG*e[5mC]) [compound 445522]
Factor XI protein; Day 10
  Inhibition of Factor XI protein relative to the PBS control: 36%
Factor XI protein; Day 17
  Inhibition of Factor XI protein relative to the PBS control: 50%
Factor XI protein; Day 24
  Inhibition of Factor XI protein relative to the PBS control: 61%
Factor XI protein; Day 31
  Inhibition of Factor XI protein relative to the PBS control: 70%
Factor XI protein; Day 38
  Inhibition of Factor XI protein relative to the PBS control: 73%
Factor XI protein; Day 45
  Inhibition of Factor XI protein relative to the PBS control: 77%
Factor XI protein; Day 52
  Inhibition of Factor XI protein relative to the PBS control: 80%
Factor XI protein; Day 55
  Inhibition of Factor XI protein relative to the PBS control: 82%
Factor XI protein; Day −5
  Inhibition of Factor XI protein relative to the PBS control: 0%
Factor XI protein; Day −14
  Inhibition of Factor XI protein relative to the PBS control: 2%
Factor XI mRNA
  % inhibition of Factor XI mRNA in liver relative to the PBS control: 89%

## 445531 (antisense eG*eG*e[5mC]*eA*eT*dT*dG*dG*dT*dG*d[5mC]*dA*d[5mC]*eA*eG*eT*eT*eT) [compound 445531]
Factor XI protein; Day 10
  Inhibition of Factor XI protein relative to the PBS control: 9%
Factor XI protein; Day 17
  Inhibition of Factor XI protein relative to the PBS control: 22%
Factor XI protein; Day 24
  Inhibition of Factor XI protein relative to the PBS control: 23%
Factor XI protein; Day 31
  Inhibition of Factor XI protein relative to the PBS control: 27%
Factor XI protein; Day 38
  Inhibition of Factor XI protein relative to the PBS control: 29%
Factor XI protein; Day 45
  Inhibition of Factor XI protein relative to the PBS control: 32%
Factor XI protein; Day 52
  Inhibition of Factor XI protein relative to the PBS control: 32%
Factor XI protein; Day 55
  Inhibition of Factor XI protein relative to the PBS control: 37%
Factor XI protein; Day −5
  Inhibition of Factor XI protein relative to the PBS control: 1%
Factor XI protein; Day −14
  Inhibition of Factor XI protein relative to the PBS control: 0%
Factor XI mRNA
  % inhibition of Factor XI mRNA in liver relative to the PBS control: 66%

## ISIS 416850: gapmer of Table 8 (antisense eT*eG*e[5mC]*eA*e[5mC]*dA*dG*dT*dT*dT*d[5mC]*dT*dG*dG*d[5mC]*eA*eG*eG*e[5mC]*e[5mC])
Factor XI protein; cynomolgus monkeys, Example 30
  Factor XI protein levels (in words): time-dependent decrease in protein levels
Factor XI mRNA; cynomolgus monkeys, day 55, in comparison to the PBS control
  Factor XI mRNA in liver (in words): significant reduction of Factor XI mRNA
[2]; 25 mg/kg s.c., day 55
  IL-1β level: 106 pg/mL
  MIP-1β level: 50 pg/mL
[2]; [5]
  IL-1β level: 215 pg/mL
  MIP-1β level: 31 pg/mL

## TGGTAATCCACTTTCAGAGG (eT*eG*eG*eT*eA*dA*dT*d[5mC]*d[5mC]*dA*d[5mC]*dT*dT*dT*d[5mC]*eA*eG*eA*eG*eG) [ISIS 404071, 5-10-5 MOE gapmer targeting murine Factor XI, target start site 869]
bradykinin; Colitis Study E, day 7
  bradykinin levels (in words): decreased
bradykinin; no human recombinant FXI
  Bradykinin levels in the colons: 0.1 ng/mg
bradykinin; [6]
  Bradykinin levels in the colons: 0.3 ng/mg
[3]; Colitis Study F, 50 mg/kg, compared to placebo
  body weight (in words): did not significantly affect body weight
[3]; DSS-treated mice, 50 mg/kg s.c. twice a week for 3 weeks, day 0
  Body weight (day 0): 28 grams
[3]; DSS-treated mice, 50 mg/kg s.c. twice a week for 3 weeks, day 7
  Body weight (day 7): 24.7 grams
[3]; DSS-treated mice, 50 mg/kg, Day 3
  Stool score: 0
[3]; DSS-treated mice, 50 mg/kg, Day 4
  Stool score: 0.25
[3]; DSS-treated mice, 50 mg/kg, Day 5
  Stool score: 1
[3]; DSS-treated mice, 50 mg/kg, Day 6
  Stool score: 1
[3]; DSS-treated mice, 50 mg/kg, Day 7
  Stool score: 1
[3]; [7]
  Colon length: 7.8 cm
  Colon weight: 339.3 mg
[4]; Colitis Study E, day 7
  colon length (in words): increase in colon length
  stool softness/diarrhea (in words): amelioration of diarrhea
[4]; no human recombinant FXI
  Colon length: 9.9 cm
  Weight change: +1.8%
  Diarrhea score: 0.5
[4]; [6]
  Colon length: 7.3 cm
  Weight change: +0.3%
  Diarrhea score: 2.0
